Patent publication US20240238423A9, “TETRAHYDROISOQUINOLINE HETEROBIFUNCTIONAL BCL-XL DEGRADERS” (Treeline Biosciences, Inc., priority 2022, published 2024)
Like-named read-outs stand apart in the source and are kept apart here.

Molecular target: T1, Human BCL-XL protein (N-terminal HiBiT tagged BCL-XL in HT1080 cells) (Homo sapiens, UniProt Q07817)
T1 construct: expressed in transfected cells; host or cells: HT-1080 (ATCC CCL-121), stably transduced with lentivirus pLV-UBC-N-HiBiT-BCL-XL-PGK-puro and selected with puromycin
Assay: HiBiT based degradation assay
Format: cell-based
Settings: HT1080 cells expressing HiBiT-BCL-XL; for DC50: BCL-XL degradation
From the text: Human BCL-XL protein coding open reading frame fused with N-terminal HiBiT coding sequence was synthesized from Integrated DNA Technologies (IDT). Next, N-HiBiT-BCL-XL sequence was cloned into pLV-UBC-PGK-Puro, a lentivirus plasmid purchased from Vectorbuilder, to generate pLV-UBC-N-HiBiT-BCL-XL-PGK-puro. Lentiviral particles were generated from Lenti-X™ 293T cells (Clontech) by co-transfection of pLV-UBC-N-HiBiT-BCL-XL-PGK-puro plasmids and lentiviral packaging plasmid mix (Cellecta). HT-1080 [HT1080](ATCC CCL-121) cells were infected with the lentivirus, and HT1080 cells stably integrated with the lentiviral vectors were established by incubation with 1 μg/mL puromycin (Thermofisher).
HT1080 cells expressing N-terminal HiBiT tagged BCL-XL were dispensed into a 384-well plate pre-spotted with compounds at varying concentrations. Three thousand cells were seeded into each well in 40 μL of RPMI 1640 media. […] After incubation, luminescence was read on a PHERAstar FSX Plate Reader (BMG). BCL-XL degradation at each indicated concentration was normalized with the DMSO control. The BCL-XL degradation curves were plotted using a four-parameter logistic model. For compounds displaying hook effects, the curve fitting was performed using the bottom point of the hook curves (i.e., the point of Ymin) as the bottom plateau to calculate EC50.

[1] = BCL-XL degradation normalized with DMSO control, 24 h

T1 sequence (Q07817 whole entry): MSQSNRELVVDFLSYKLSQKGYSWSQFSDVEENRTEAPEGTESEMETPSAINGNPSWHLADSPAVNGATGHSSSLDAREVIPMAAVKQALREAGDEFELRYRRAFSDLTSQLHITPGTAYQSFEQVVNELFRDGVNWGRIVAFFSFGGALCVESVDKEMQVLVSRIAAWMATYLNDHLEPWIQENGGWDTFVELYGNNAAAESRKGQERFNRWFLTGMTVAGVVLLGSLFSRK

| Ymin (24 h) [1] | DC50 (24 h, read-out: EC50 (24 h)) [µM] | Ymin (6 h) (BCL-XL degradation normalized with DMSO control, 6 h) | DC50 (6 h, read-out: EC50 (6 h)) [µM] | SMILES |
| --- | --- | --- | --- | --- |
| A (Ymin < 50%) | < 0.1 |  |  | Cc1c(OC[C@H]2CCC3(CCN(CC(=O)Nc4ccc5c(C6CCC(=O)NC6=O)nn(C)c5c4)CC3)C2)cccc1-c1ccc(N2CCc3cccc(C(=O)Nc4nc5ccccc5s4)c3C2)nc1C(=O)O (single isomer, unassigned) [Compound 262a] |
| A (Ymin < 50%) | < 0.1 |  |  | Cc1c(OC[C@@H]2CCC3(CCN(CC(=O)Nc4ccc5c(C6CCC(=O)NC6=O)nn(C)c5c4)CC3)C2)cccc1-c1ccc(N2CCc3cccc(C(=O)Nc4nc5ccccc5s4)c3C2)nc1C(=O)O (single isomer, unassigned) [Compound 262b] |
| B (50% ≤ Ymin < 70%) | < 0.1 |  |  | Cc1c(OC[C@H](C)CC2CCN(CC(=O)Nc3ccc4c(C5CCC(=O)NC5=O)nn(C)c4c3)CC2)cccc1-c1ccc(N2CCc3cccc(C(=O)Nc4nc5ccccc5s4)c3C2)nc1C(=O)O (single isomer, unassigned) [Compound 263a] |
| A (Ymin < 50%) | < 0.1 |  |  | Cc1c(OC[C@@H](C)CC2CCN(CC(=O)Nc3ccc4c(C5CCC(=O)NC5=O)nn(C)c4c3)CC2)cccc1-c1ccc(N2CCc3cccc(C(=O)Nc4nc5ccccc5s4)c3C2)nc1C(=O)O (single isomer, unassigned) [Compound 263b] |
| A (Ymin < 50%) | < 0.1 |  |  | Cc1cc(OCC[C@@H](C)C2CCN(CC(=O)Nc3ccc4c(C5CCC(=O)NC5=O)nn(C)c4c3)CC2)ccc1-c1ccc(N2CCc3cccc(C(=O)Nc4nc5ccccc5s4)c3C2)nc1C(=O)O (single isomer, unassigned) [Compound 266a] |
| A (Ymin < 50%) | < 0.1 |  |  | Cc1cc(OCC[C@H](C)C2CCN(CC(=O)Nc3ccc4c(C5CCC(=O)NC5=O)nn(C)c4c3)CC2)ccc1-c1ccc(N2CCc3cccc(C(=O)Nc4nc5ccccc5s4)c3C2)nc1C(=O)O (single isomer, unassigned) [Compound 266b] |
| A (Ymin < 50%) | < 0.1 |  |  | Cc1c(O[C@@H]2CCC3(CCN(CC(=O)Nc4ccc5c(C6CCC(=O)NC6=O)nn(C)c5c4)CC3)C2)cccc1-c1ccc(N2CCc3cccc(C(=O)Nc4nc5ccccc5s4)c3C2)nc1C(=O)O (single isomer, unassigned) [Compound 268b] |
| A (Ymin < 50%) | < 0.1 |  |  | Cc1cc(OC[C@H](C)CC2CCN(CC(=O)Nc3ccc4c(C5CCC(=O)NC5=O)nn(C)c4c3)CC2)ccc1-c1ccc(N2CCc3cccc(C(=O)Nc4nc5ccccc5s4)c3C2)nc1C(=O)O (single isomer, unassigned) [Compound 271a] |
| A (Ymin < 50%) | < 0.1 |  |  | Cc1c(OCC[C@@H]2CCC3(CCN(CC(=O)Nc4ccc5c(C6CCC(=O)NC6=O)nn(C)c5c4)CC3)C2)cccc1-c1ccc(N2CCc3cccc(C(=O)Nc4nc5ccccc5s4)c3C2)nc1C(=O)O (single isomer, unassigned) [Compound 272b, 6-(8-(benzo[d]thiazol-2-ylcarbamoyl)-3,4-dihydro-isoquinolin-2(1 h)-yl)-3-(3-(2-((2r)-8-(2-((3-(2,6-dioxopiperidin-3-yl)-1-methyl-1 h-indazol-6-yl)amino)-2-oxoethyl)-8-azaspiro[4.5]decan-2-yl)ethoxy)-2-methylphenyl)picolinic acid] |
| A (Ymin < 50%) | < 0.1 |  |  | Cc1c(OCC[C@@H]2CC23CCN(CC(=O)Nc2ccc4c(C5CCC(=O)NC5=O)nn(C)c4c2)CC3)cccc1-c1ccc(N2CCc3cccc(C(=O)Nc4nc5ccccc5s4)c3C2)nc1C(=O)O (single isomer, unassigned) [Compound 289a] |

Second part, the compound before the results:

| SMILES | Ymin (24 h) [1] | DC50 (24 h, read-out: EC50 (24 h)) [µM] | Ymin (6 h) (BCL-XL degradation normalized with DMSO control, 6 h) | DC50 (6 h, read-out: EC50 (6 h)) [µM] |
| --- | --- | --- | --- | --- |
| Cc1c(OCCC[C@@H]2CCCN(CC(=O)Nc3cccc4c(C5CCC(=O)NC5=O)nn(C)c34)C2)cccc1-c1ccc(N2CCc3cccc(C(=O)Nc4nc5ccccc5s4)c3C2)nc1C(=O)O (single isomer, unassigned) [Compound 210a] | B (50% ≤ Ymin < 70%) | < 0.1 |  |  |
| Cc1c(OCCC[C@H]2CCCN(CC(=O)Nc3cccc4c(C5CCC(=O)NC5=O)nn(C)c34)C2)cccc1-c1ccc(N2CCc3cccc(C(=O)Nc4nc5ccccc5s4)c3C2)nc1C(=O)O (single isomer, unassigned) [Compound 210b] | C (Ymin ≥ 70%) | < 0.1 | C (Ymin ≥ 70%) | 1 to 10 |
| Cc1c(O[C@H]2CCC3(CCN(CC(=O)Nc4ccc5c(C6CCC(=O)NC6=O)nn(C)c5c4)CC3)C2)cccc1-c1ccc(N2CCc3cccc(C(=O)Nc4nc5ccccc5s4)c3C2)nc1C(=O)O (single isomer, unassigned) [Compound 268a] | A (Ymin < 50%) | < 0.1 |  |  |
| Cc1c(O[C@H]2CC[C@H](CC[C@H](C)N3CCN(c4ccc5c(C6CCC(=O)NC6=O)nn(C)c5c4)CC3)CC2)cccc1-c1ccc(N2CCc3cccc(C(=O)Nc4nc5ccccc5s4)c3C2)nc1C(=O)O (single isomer, unassigned) [Compound 281a] | A (Ymin < 50%) | < 0.1 |  |  |
| Cc1c(O[C@H]2CC[C@H](CC[C@@H](C)N3CCN(c4ccc5c(C6CCC(=O)NC6=O)nn(C)c5c4)CC3)CC2)cccc1-c1ccc(N2CCc3cccc(C(=O)Nc4nc5ccccc5s4)c3C2)nc1C(=O)O (single isomer, unassigned) [Compound 281b] | A (Ymin < 50%) | < 0.1 |  |  |
| Cc1c(O[C@H]2CC[C@H](C[C@@H](C)CN3CCN(c4ccc5c(C6CCC(=O)NC6=O)nn(C)c5c4)CC3)CC2)cccc1-c1ccc(N2CCc3cccc(C(=O)Nc4nc5ccccc5s4)c3C2)nc1C(=O)O (single isomer, unassigned) [Compound 282a] | A (Ymin < 50%) | < 0.1 |  |  |
| Cc1c(O[C@H]2CC[C@H](C[C@H](C)CN3CCN(c4ccc5c(C6CCC(=O)NC6=O)nn(C)c5c4)CC3)CC2)cccc1-c1ccc(N2CCc3cccc(C(=O)Nc4nc5ccccc5s4)c3C2)nc1C(=O)O (single isomer, unassigned) [Compound 282b, 6-(8-(benzo[d]thiazol-2-ylcarbamoyl)-3,4-dihydroisoquinolin-2(1H)-yl)-3-(3-(((1S,4r)-4-((2S*)-3-(4-(3-(2,6-dioxopiperidin-3-yl)-1-methyl-1H-indazol-6-yl)piperazin-1-yl)-2-methylpropyl)cyclohexyl)oxy)-2-methylphenyl)picolinic acid] | A (Ymin < 50%) | < 0.1 |  |  |
| Cc1c(O[C@H]2CC[C@H](CC[C@H](C)N3CCN(c4cccc5c(C6CCC(=O)NC6=O)nn(C)c45)CC3)CC2)cccc1-c1ccc(N2CCc3cccc(C(=O)Nc4nc5ccccc5s4)c3C2)nc1C(=O)O (single isomer, unassigned) [Compound 283a] | A (Ymin < 50%) | < 0.1 |  |  |
| Cc1c(O[C@H]2CC[C@H](CC[C@@H](C)N3CCN(c4cccc5c(C6CCC(=O)NC6=O)nn(C)c45)CC3)CC2)cccc1-c1ccc(N2CCc3cccc(C(=O)Nc4nc5ccccc5s4)c3C2)nc1C(=O)O (single isomer, unassigned) [Compound 283b] | A (Ymin < 50%) | < 0.1 |  |  |
| Cc1c(O[C@H]2CC[C@H](C[C@H](C)CN3CCN(c4cccc5c(C6CCC(=O)NC6=O)nn(C)c45)CC3)CC2)cccc1-c1ccc(N2CCc3cccc(C(=O)Nc4nc5ccccc5s4)c3C2)nc1C(=O)O (single isomer, unassigned) [Compound 284a] | A (Ymin < 50%) | < 0.1 |  |  |
| Cc1c(O[C@H]2CC[C@H](C[C@@H](C)CN3CCN(c4cccc5c(C6CCC(=O)NC6=O)nn(C)c45)CC3)CC2)cccc1-c1ccc(N2CCc3cccc(C(=O)Nc4nc5ccccc5s4)c3C2)nc1C(=O)O (single isomer, unassigned) [Compound 284b, 6-(8-(benzo[d]thiazol-2-ylcarbamoyl)-3,4-dihydroisoquinolin-2(1H)-yl)-3-(3-(((1R,4r)-4-((2R*)-3-(4-(3-(2,6-dioxopiperidin-3-yl)-1-methyl-1H-indazol-7-yl)piperazin-1-yl)-2-methylpropyl)cyclohexyl)oxy)-2-methylphenyl)picolinic acid] | A (Ymin < 50%) | < 0.1 |  |  |
| Cc1c(O[C@H]2CC[C@H](C[C@H](C)CCN3CCN(c4ccc5c(C6CCC(=O)NC6=O)nn(C)c5c4)CC3)CC2)cccc1-c1ccc(N2CCc3cccc(C(=O)Nc4nc5ccccc5s4)c3C2)nc1C(=O)O (single isomer, unassigned) [Compound 307a] | A (Ymin < 50%) | < 0.1 |  |  |
| Cc1c(O[C@H]2CC[C@H](C[C@@H](C)CCN3CCN(c4ccc5c(C6CCC(=O)NC6=O)nn(C)c5c4)CC3)CC2)cccc1-c1ccc(N2CCc3cccc(C(=O)Nc4nc5ccccc5s4)c3C2)nc1C(=O)O (single isomer, unassigned) [Compound 307b] | A (Ymin < 50%) | < 0.1 |  |  |
| Cc1c(O[C@H]2CC[C@H](CC[C@@H](C)CN3CCN(c4ccc5c(C6CCC(=O)NC6=O)nn(C)c5c4)CC3)CC2)cccc1-c1ccc(N2CCc3cccc(C(=O)Nc4nc5ccccc5s4)c3C2)nc1C(=O)O (single isomer, unassigned) [Compound 308a] | A (Ymin < 50%) | < 0.1 |  |  |
